Legend:
human Cav2.2 = human Cav2.2 (Homo sapiens, UniProt Q00975); assay: Assessment of calcium channel activity using FLIPR (Ca2+ influx in IMR32 cells); assay type: cell-based
Summary of the method: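 Human neuroblastoma IMR32 cells were seeded at 1−1.2×10^5 cells/well and cultured 48 h at 37 °C before FLIPR calcium influx measurement. Percent inhibition at each concentration was calculated against the no-inhibitor signal, and IC50 came from sigmoidal dose-response fits.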

Sprague Dawley rats [1] = assay: Capsaicin induced secondary mechanical hyperalgesia model; assay type: in vivo; settings: po, 1 h, read-out: % inhibition @ 30 mg/kg p.o.; 30 mg/kg p.o. 60 minutes before testing; SMH measured 180 minutes after capsaicin; rat
Procedure: (ii) In Vivo Data—Capsaicin Induced Secondary Mechanical Hyperalgesia Model:
Sprague Dawley rats were briefly restrained, and capsaicin was administered at 10 μg in 10 μL of vehicle by intraplantar injection into the center of the right hind paw. Secondary mechanical hyperalgesia (SMH) was measured at the heel away from the site of injection 180 minutes following capsaicin exposure. Compounds and gabapentin (positive control), were administered p.o. 60 minutes before testing (2 hours after capsaicin) or i.p. 30 minutes before testing (2.5 hours after capsaicin). SMH was measured using calibrated von Frey filaments (Stoelting, Woodale, Ill.). Following the 1 hour habituation in the testing room, rats were moved to individual plexiglass chambers that sit on top of a wire mesh to allow for access for stimulation of the plantar surface of the hind paws. Rats were allowed to acclimate to the new chambers for 15 minutes before the onset of testing. The paw withdrawal threshold was determined by increasing and decreasing stimulus intensity (force: g) and calculated using Dixon's up-down method (Chaplan, S. R.; Bach, F. W.; Pogrel, J. W.; Chung, J. M.; Yaksh, T. L.; J. Neuroscience Methods 1994, 53(1), 55-63.). The filaments (maximum force of 15.0 g) were held in place for 8 seconds or until there was a withdrawal response from the mechanical stimulation.

Sprague Dawley rats [2] = assay: Analgesic effect against neuropathic pain, Bennett model (chronic constriction injury); assay type: in vivo; settings: Rattus norvegicus, 1 h; 30 mg/kg po; mechanical allodynia 60 minutes after administration; CCI rats; read-out: % MPE
Procedure: (iii) In Vivo Data—Determination of Analgesic Effect Against Neuropathic Pain—Bennett Model
Animals were prepared for testing, by use of a surgical procedure that induces neuropathic pain in one paw. IACUC guidelines for rodent survival surgery are followed. All surgical procedures are conducted on a clean, uncluttered surgical station. The area is wiped with a 70% ethanol solution before and after use. All instruments are sterilized by either autoclave or chemical sterilant (such as 2% glutaraldehyde >10 hr). Surgeons wear sterile gloves (for the initial procedure), clean lab coat or scrubs, hairnet or cap, and a half-mask respirator (when not working under a hood). Surgeons thoroughly wash their hands prior to donning sterile gloves. Gloves are disinfected in-between animals by cleansing with povidone iodine, chlorhexidine or 70% alcohol for at least 30 seconds. If multiple surgeries are performed, the instruments are cleaned and sterilized between procedures with hot glass beads (>10 seconds). To prevent thermal or chemical burns, the instruments are cooled by rinsing in sterile saline before use.
To minimize post-operative dehydration/maintain blood volume during the surgery, warmed sterile saline or Lactate Ringers solution at 10-15 mL/kg is administered subcutaneously immediately before or after surgery. This facilitates better renal function and presumably anesthesia product excretion post surgery. For all surgical procedures, anesthesia is induced with 4-5% isoflurane. Anesthesia is be maintained during surgery with 1-3% isoflurane. Following induction, the surgical site is carefully shaved and the exposed area is aseptically prepared with povidone-iodine scrub solution and 70% ethanol 2-3 times.
After site sterilization and anesthetic procedures outline above are completed, a 1.5 cm incision is made at the mid-thigh level to expose the biceps femoris and gluteous superficialis (right side), which are then separated by blunt dissection. The common sciatic nerve is exposed, isolated, and loosely ligated by four 5-0 chromic gut ligatures with <1 mm spacing between each. The surgical site is closed in layers—muscle is closed with 6.0 absorbable sutures, and the skin closed with wound clips. Animals are allowed to recover on a warming plate and are returned to their home cages when fully ambulatory. Animals are not be used for testing until at least 10 days following surgery.
Filament strengths used are: 0.4, 0.6, 1.0, 2, 4, 6, 8, and 15 g. […] Filaments are applied perpendicular to the mid-plantar paw surface with enough force to cause slight buckling and held in place for 6-8 seconds. Positive responses include an abrupt withdrawal of the paw from the stimulus or flinching behavior immediately following removal of the stimulus. The maximum force applied will be 15 g. […] All compounds were orally administered in 10% dimethyl sulfoxide/polyethylene glycol at a volume of 2.0 mL/kg, and mechanical allodynia was determined 60 minutes following compound administration. Data are reported as log g values and the percentage of maximum possible effect (% MPE) is calculated using log g values with the formula: % MPE=(log [observed PWT in grams]−log [mean PWT vehicle])/(log [15]−log [mean PWT vehicle])*100 All statistical procedures are run on log g values.

Chain of human Cav2.2 (Q00975 whole entry): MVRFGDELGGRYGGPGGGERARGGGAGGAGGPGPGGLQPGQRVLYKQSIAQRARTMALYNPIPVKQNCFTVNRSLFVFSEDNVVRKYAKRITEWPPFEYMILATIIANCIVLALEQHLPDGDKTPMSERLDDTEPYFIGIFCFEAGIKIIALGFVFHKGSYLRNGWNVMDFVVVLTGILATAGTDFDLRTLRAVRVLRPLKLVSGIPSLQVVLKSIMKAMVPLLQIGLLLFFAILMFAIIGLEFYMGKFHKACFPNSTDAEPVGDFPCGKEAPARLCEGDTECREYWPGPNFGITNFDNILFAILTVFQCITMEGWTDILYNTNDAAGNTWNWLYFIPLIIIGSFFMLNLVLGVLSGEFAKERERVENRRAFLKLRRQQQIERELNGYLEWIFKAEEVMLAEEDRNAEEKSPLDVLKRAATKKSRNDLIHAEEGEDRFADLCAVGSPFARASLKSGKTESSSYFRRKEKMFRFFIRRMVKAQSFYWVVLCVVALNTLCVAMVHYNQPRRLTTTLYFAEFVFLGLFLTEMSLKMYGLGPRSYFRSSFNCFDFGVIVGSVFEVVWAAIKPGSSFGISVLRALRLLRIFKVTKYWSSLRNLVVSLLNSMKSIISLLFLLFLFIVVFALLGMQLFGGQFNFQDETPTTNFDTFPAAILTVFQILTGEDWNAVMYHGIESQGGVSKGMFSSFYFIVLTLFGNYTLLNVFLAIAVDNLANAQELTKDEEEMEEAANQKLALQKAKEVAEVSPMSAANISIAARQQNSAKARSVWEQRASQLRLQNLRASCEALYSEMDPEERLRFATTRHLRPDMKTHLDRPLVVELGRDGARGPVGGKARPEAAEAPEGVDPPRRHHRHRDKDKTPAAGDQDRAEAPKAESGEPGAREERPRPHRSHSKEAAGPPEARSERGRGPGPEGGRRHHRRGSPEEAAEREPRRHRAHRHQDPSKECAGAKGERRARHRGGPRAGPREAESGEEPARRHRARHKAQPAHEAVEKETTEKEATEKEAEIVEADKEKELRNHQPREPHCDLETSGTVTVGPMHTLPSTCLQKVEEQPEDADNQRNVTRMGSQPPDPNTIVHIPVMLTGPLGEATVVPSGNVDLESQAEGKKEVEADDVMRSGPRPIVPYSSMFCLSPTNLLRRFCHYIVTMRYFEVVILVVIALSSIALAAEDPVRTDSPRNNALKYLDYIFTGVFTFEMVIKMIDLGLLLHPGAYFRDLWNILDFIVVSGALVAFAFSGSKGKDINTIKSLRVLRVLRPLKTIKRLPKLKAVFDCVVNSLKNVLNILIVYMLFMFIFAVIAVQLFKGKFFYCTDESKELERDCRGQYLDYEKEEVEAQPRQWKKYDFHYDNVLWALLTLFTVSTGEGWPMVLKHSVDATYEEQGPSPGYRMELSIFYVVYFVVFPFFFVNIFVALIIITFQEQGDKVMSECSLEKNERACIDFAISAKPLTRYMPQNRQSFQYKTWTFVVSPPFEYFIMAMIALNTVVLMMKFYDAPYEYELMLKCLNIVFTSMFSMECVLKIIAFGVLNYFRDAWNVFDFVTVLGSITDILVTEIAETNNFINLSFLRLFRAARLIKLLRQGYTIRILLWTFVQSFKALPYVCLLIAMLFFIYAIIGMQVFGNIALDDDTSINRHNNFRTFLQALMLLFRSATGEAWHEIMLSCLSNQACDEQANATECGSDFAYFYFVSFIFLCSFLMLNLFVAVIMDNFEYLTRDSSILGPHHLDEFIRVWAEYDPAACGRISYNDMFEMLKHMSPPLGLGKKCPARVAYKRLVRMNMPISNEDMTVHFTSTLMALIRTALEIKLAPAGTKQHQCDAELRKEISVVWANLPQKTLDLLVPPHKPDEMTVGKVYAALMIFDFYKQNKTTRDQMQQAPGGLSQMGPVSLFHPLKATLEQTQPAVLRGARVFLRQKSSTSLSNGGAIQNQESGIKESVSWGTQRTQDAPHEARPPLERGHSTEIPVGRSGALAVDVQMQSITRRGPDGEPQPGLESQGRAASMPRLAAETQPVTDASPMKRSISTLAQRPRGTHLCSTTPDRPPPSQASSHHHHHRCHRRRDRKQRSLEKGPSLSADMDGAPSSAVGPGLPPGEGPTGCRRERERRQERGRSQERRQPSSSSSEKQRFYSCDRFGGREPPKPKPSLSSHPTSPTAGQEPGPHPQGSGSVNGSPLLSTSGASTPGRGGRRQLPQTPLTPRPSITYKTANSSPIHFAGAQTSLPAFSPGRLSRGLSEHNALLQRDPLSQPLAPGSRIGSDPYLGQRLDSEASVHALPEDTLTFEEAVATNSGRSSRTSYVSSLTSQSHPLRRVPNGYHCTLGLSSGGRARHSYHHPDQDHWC
Chain of human Cav2.2 (P54289 25-956 partner limits assumed): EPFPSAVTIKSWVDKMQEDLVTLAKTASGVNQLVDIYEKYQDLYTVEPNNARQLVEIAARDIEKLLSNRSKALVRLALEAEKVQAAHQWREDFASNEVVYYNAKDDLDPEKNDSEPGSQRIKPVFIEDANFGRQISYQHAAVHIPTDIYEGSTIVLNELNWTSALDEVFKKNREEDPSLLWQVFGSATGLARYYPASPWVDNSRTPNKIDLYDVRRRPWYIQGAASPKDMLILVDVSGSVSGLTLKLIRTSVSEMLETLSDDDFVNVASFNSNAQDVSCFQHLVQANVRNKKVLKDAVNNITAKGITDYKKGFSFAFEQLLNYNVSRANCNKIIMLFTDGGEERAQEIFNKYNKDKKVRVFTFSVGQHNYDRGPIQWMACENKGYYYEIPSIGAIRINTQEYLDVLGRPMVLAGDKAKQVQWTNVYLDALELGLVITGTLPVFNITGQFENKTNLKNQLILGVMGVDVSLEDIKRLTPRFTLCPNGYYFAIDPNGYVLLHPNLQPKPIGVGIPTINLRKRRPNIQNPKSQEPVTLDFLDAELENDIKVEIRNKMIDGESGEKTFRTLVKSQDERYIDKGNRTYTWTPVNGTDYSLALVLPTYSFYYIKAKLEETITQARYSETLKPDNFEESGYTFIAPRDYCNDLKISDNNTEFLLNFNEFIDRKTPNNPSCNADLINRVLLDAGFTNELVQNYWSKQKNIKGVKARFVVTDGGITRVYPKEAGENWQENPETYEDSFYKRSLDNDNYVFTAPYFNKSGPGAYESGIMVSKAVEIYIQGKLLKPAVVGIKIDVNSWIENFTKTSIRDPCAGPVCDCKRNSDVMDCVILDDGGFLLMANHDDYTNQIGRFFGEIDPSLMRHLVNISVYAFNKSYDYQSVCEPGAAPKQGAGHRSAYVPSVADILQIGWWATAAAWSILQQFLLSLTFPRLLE
Chain of human Cav2.2 (P54289 957-1103 partner limits assumed): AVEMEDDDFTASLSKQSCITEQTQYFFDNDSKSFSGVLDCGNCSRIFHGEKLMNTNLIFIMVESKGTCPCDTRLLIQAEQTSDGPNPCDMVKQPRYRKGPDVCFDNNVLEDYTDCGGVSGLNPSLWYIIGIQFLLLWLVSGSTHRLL
Chain of human Cav2.2 (P54284 whole entry partner): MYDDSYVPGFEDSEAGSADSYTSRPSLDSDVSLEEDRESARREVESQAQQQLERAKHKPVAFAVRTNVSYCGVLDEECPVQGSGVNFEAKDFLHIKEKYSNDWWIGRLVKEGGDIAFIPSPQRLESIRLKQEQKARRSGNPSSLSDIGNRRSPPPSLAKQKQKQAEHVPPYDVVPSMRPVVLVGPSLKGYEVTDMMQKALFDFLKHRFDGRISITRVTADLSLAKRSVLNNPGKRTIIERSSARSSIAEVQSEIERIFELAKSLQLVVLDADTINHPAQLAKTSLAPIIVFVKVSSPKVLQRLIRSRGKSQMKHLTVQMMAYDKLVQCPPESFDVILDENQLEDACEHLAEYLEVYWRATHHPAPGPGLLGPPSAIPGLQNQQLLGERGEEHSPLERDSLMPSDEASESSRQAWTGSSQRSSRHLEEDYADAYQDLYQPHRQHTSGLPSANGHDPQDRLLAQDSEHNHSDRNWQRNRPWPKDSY

SMILES | IC50 (human Cav2.2) [nM] | inhibition in vivo at 30 mg/kg (Sprague Dawley rats [1]) [%] | inhibition in vivo at 30 mg/kg (Sprague Dawley rats [2]) [%]
O=C(N[C@H]1CC[C@@H]2CN(c3cccc(C(F)(F)F)n3)C[C@@H]21)[C@@H]1C[C@@H](F)CN1 [Example 592, (4R)-4-fluoro-N-{(3aR,4S,6aS)-2-[6-(trifluoromethyl)pyridin-2-yl]octahydrocyclopenta[c]pyrrol-4-yl}-L-prolinamide] | 4500 | 54 | 
O=C(N[C@H]1CC[C@@H]2CN(c3cccc(C(F)(F)F)n3)C[C@@H]21)C1(O)CCCC1 [Example 573, 1-hydroxy-N-{(3aR,4S,6aS)-2-[6-(trifluoromethyl)pyridin-2-yl]octahydrocyclopenta[c]pyrrol-4-yl}cyclopentanecarboxamide] | 1680 | 57 | 
CN[C@@H](CC(C)(C)C)C(=O)N1C[C@H]2CC[C@H](NC(=O)C(c3ccc(F)cc3)c3ccc(F)cc3)[C@H]2C1 [Example 461, N-[(3aR,4S,6aS)-2-(N,4-dimethyl-L-leucyl)octahydrocyclopenta[c]pyrrol-4-yl]-2,2-bis(4-fluorophenyl)acetamide] | 1460 | 43 | 
O=C(N[C@H]1CC[C@@H]2CN(c3cccc(C(F)(F)F)n3)C[C@@H]21)[C@@H]1CCCN1 [Example 598, N-{(3aR,4S,6aS)-2-[6-(trifluoromethyl)pyridin-2-yl]octahydrocyclopenta[c]pyrrol-4-yl}-L-prolinamide] | 2570 | 54 | 
O=C(N[C@H]1CC[C@@H]2CN(c3cccc(C(F)(F)F)n3)C[C@@H]21)[C@@H]1CCCCN1 [Example 597, (2S)-N-{(3aR,4S,6aS)-2-[6-(trifluoromethyl)pyridin-2-yl]octahydrocyclopenta[c]pyrrol-4-yl}piperidine-2-carboxamide] | 1300 | 54 | 
CN[C@@H](CC(C)C)C(=O)N[C@H]1CC[C@@H]2CN(c3ccc(C(F)(F)F)cn3)C[C@@H]21 [Example 600, N^2-methyl-N-{(3aR,4S,6aS)-2-[5-(trifluoromethyl)pyridin-2-yl]octahydrocyclopenta[c]pyrrol-4-yl}-L-leucinamide] | 2860 | 63 | 40
CN[C@@H](CC(C)C)C(=O)N[C@H]1CC[C@@H]2CN(c3cccc(C(F)F)c3)C[C@@H]21 [Example 729, N-{(3aR,4S,6aS)-2-[3-(difluoromethyl)phenyl]octahydrocyclopenta[c]pyrrol-4-yl}-N^2-methyl-L-leucinamide] | 1080 |  | 85
CN[C@@H](CC(C)(C)C)C(=O)N[C@H]1CC[C@@H]2CN(c3cccc(C(F)(F)F)n3)C[C@@H]21 [Example 587, N^2,4-dimethyl-N-{(3aR,4S,6aS)-2-[6-(trifluoromethyl)pyridin-2-yl]octahydrocyclopenta[c]pyrrol-4-yl}-L-leucinamide] | 390 | 16 | 
CN[C@@H](CC(C)C)C(=O)N[C@H]1CC[C@@H]2CN(c3ccc(C(F)(F)F)nc3)C[C@@H]21 [Example 735, N^2-methyl-N-{(3aR,4S,6aS)-2-[6-(trifluoromethyl)pyridin-3-yl]octahydrocyclopenta[c]pyrrol-4-yl}-L-leucinamide] | 3620 |  | 60
O=C(N[C@H]1CC[C@@H]2CN(c3cccc(C(F)(F)F)n3)C[C@@H]21)[C@@H]1C[C@@H]2CCCC[C@@H]2N1 [Example 593, (2S,3aS,7aS)-N-{(3aR,4S,6aS)-2-[6-(trifluoromethyl)pyridin-2-yl]octahydrocyclopenta[c]pyrrol-4-yl}octahydro-1H-indole-2-carboxamide] | 520 | 76 | 
CCC[C@H](NC)C(=O)N[C@H]1CC[C@@H]2CN(c3ccc(C(F)(F)F)cn3)C[C@@H]21 [Example 599, N^2-methyl-N-{(3aR,4S,6aS)-2-[5-(trifluoromethyl)pyridin-2-yl]octahydrocyclopenta[c]pyrrol-4-yl}-L-norvalinamide] | 4430 | 32 | 
CC(C)(C)[C@H](O)C(=O)N[C@H]1CC[C@@H]2CN(c3cccc(C(F)(F)F)n3)C[C@@H]21 [Example 580, (2S)-2-hydroxy-3,3-dimethyl-N-{(3aR,4S,6aS)-2-[6-(trifluoromethyl)pyridin-2-yl]octahydrocyclopenta[c]pyrrol-4-yl}butanamide] | 1880 |  | 5

Reference: patent US8691865B2 (AbbVie Inc., priority 2008, dated 2014)
